Here are results for 5 compounds from publication PMC6009892, “A novel series of pyrazole-platinum(II) complexes as potential anti-cancer agents that induce cell cycle arrest and apoptosis in breast cancer cells” (Journal of Enzyme Inhibition and Medicinal Chemistry, 2018).

Where two headings read alike, the source gives them in different places.

What all share (assay type): cell-based, human
Assay [1] has as its system caspase-9 in MCF-7 breast cancer cells. Put plainly: FLICA caspase-9 activity, flow cytometry, MCF-7. The following applies: MCF-7, 20 μM, 24 h. As for the experimental part: (§1) Caspase-9 activity was measured using the FLICA Caspase 9 Assay Kit (ImmunoChemistry Technologies, Bloomington, MN, USA), according to the manufacturer’s instructions. Briefly, cultured MCF-7 and MDA-MB-231 breast cancer cells (1 × 10^6) were washed with cold PBS twice and re-suspended in buffer. We added 5 µl of diluted FLICA reagent and 2 µl of Hoechst 33342 to 93 µl of cell suspension and mixed by pipetting. The cells were incubated for 60 min at 37°C. After incubation, the cells were washed twice in 400 µl of apoptosis wash buffer and centrifuged at 300 × g. After the last wash, we re-suspended cells in 100 µl of apoptosis wash buffer supplemented with 10 µg/ml PI. Analysis was performed using the BD FACSCanto II flow cytometer, and the results were analysed with FACSDiva software (both from BD Biosciences Systems, San Jose, CA).

Assay [2] concerns caspase-8 in MCF-7 breast cancer cells. Put plainly: FLICA caspase-8 activity, flow cytometry, MCF-7. The following applies: MCF-7, 20 μM, 24 h. As for the experimental part:
as §1, with “Caspase-8 activity was” for “Caspase-9 activity was”, “FLICA Caspase 8 Assay Kit” for “FLICA Caspase 9 Assay Kit”, “we re-suspended the cells in” for “we re-suspended cells in”

Assay [3] concerns MDA-MB-231 breast cancer cells. The assay is described as follows: MTT cell viability assay, MDA-MB-231. The following applies: 5-50 μM, read-out: IC50 (cell viability, MTT). As for the experimental part:
(§2) MCF-7, MDA-MB-231 (both human breast cancer cell lines), and fibroblast cells were obtained from American Type Culture Collection (ATCC, Manassas, VA, USA). DMEM and FBS used in a cell culture were from Gibco (USA). Glutamine, penicillin, and streptomycin were obtained from Quality Biologicals Inc. (USA). DMEM media was blended with 50 units/ml of penicillin, 50 μg/ml of streptomycin, 10% of FBS. All cell lines were cultured in 5% CO2 and fully humidified at 37 °C. Cells were cultured in Costar flasks and sub-confluent cells were detached with 0.05% trypsin and 0.02% ethylenediaminetetraacetic acid in calcium-free phosphate-buffered saline (PBS), counted in hemocytometers, and plated at 5 × 10^5 cells/well of six-well plates (Thermo Scientific, New York, NY, USA) in 2 ml of growth medium (DMEM without phenol red with 10% CPSR1). Cells reached about 80% of confluency at day 2, and in most cases such cells were used for the assays.
(§3) The viability of cultured cells was decided through assaying the reduction of MTT to formazan. In brief, MCF-7, MDA-MB-231, and fibroblast cells line were seeded at an initial density of 1 × 10^5 cells per well. Then, the cells were incubated at 37 °C for 24 h. Subsequently, cultured cells were treated with a medium containing concentrations (5, 10, 20, 30, 40, and 50 μM) of PtPz1–PtPz6 for 24 h and 48 h. After the incubation period, MTT was added into all wells in the final concentration of 0.5 mg/ml. After that, the cells were incubated at 37 °C for 4 h. Then, by removing the medium, 200 μl of DMSO was added to all wells. As a result, insoluble formazan was dissolved in DMSO (0.5%). At 570 nm (630 nm as a reference), the absorbance was measured in an Evolution 201 reader (Thermo Scientific, Waltham, MA).
Background: Formazan colour is commonly taken as a measure of viable cells.

The test system of assay [4] is caspase-3 in MDA-MB-231 breast cancer cells. The assay is described as follows: FLICA caspase-3 activity, flow cytometry, MDA-MB-231. The following applies: MDA-MB-231, 20 μM, 24 h. The method, then: as §1, with “Caspase-3 activity was” for “Caspase-9 activity was”, “FLICA Caspase 3 Assay Kit” for “FLICA Caspase 9 Assay Kit”, “Briefly, cultured MDA-MB-231 breast” for “Briefly, cultured MCF-7 and MDA-MB-231 breast”, “we re-suspended the cells in” for “we re-suspended cells in”

The subject of assay [5] is MDA-MB-231 breast cancer cells. The assay is described as follows: DNA fragmentation TUNEL assay, MDA-MB-231. The note with it: MDA-MB-231, 20 μM, 24 h. The method, then: (§4) DNA fragmentation associated with apoptosis was examined by the terminal deoxynucleotidyltransferase (TdT)- mediated dUTP nick end labeling (TUNEL) method using a commercial assay kit (APO-Direct Kit; BD Pharmingen, San Diego, CA). After treatment, the cells were fixed with 1% paraformaldehyde in PBS (4°C, 30 min), washed in PBS, and permeabilised with ice-cold 70% ethanol. The APO-Direct Kit TUNEL assay was performed as described by the manufacturer. Briefly, the fixed cells were washed twice using the kit wash buffer, and after centrifugation the supernatant was discarded. The DNA labeling solution (containing TdT enzyme and FITC-dUTP) was added to the cell pellet, and the re-suspended mixture was incubated for 1 h at 37°C with occasional shaking. At the end of incubation time, rinse buffer was added, and after centrifugation the supernatant was discarded. We repeated the cell rinsing with rinse buffer, and then suspended the cell pellet in PI/RNase staining buffer. Cells were incubated at room temperature for 30 min and immediately analysed in a BD FACSCanto II flow cytometer. In total, 10,000 events were collected per test sample. The results were analysed with FACSDiva software (both from BD Biosciences Systems, San Jose, CA). The percentage of cells with distinctive apoptotic DNA strand breaks and distinguished by green fluorescent emission was calculated.

Assay [6] deals with caspase-8 in MDA-MB-231 breast cancer cells. The assay is described as follows: FLICA caspase-8 activity, flow cytometry, MDA-MB-231. The following applies: MDA-MB-231, 20 μM, 24 h. As for the experimental part:
as §1, with “Caspase-8 activity was” for “Caspase-9 activity was”, “FLICA Caspase 8 Assay Kit” for “FLICA Caspase 9 Assay Kit”, “we re-suspended the cells in” for “we re-suspended cells in”

The subject of assay [7] is MCF-7 breast cancer cells. Put plainly: MTT cell viability assay, MCF-7. The following applies: 5-50 μM, read-out: IC50 (cell viability, MTT). As for the experimental part:
as §2, §3

Assay [8] deals with MCF-7 breast cancer cells. The assay is described as follows: DNA fragmentation TUNEL assay, MCF-7. The note with it: MCF-7, 20 μM, 24 h; control 4.0%. The method, then:
as §4

For orientation: IC50 means the concentration that gives 50% inhibition. Turning to `Cc1cc(C)[n+]([Pt-2]2([n+]3c(C)cc(C)n3CO)[N](c3ccc(C(=N)N)cc3)N=[N+](c3ccc(C(=N)N)cc3)[Pt-2]([n+]3c(C)cc(C)n3CO)([n+]3c(C)cc(C)n3CO)[N](c3ccc(C(=N)N)cc3)N=[N+]2c2ccc(C(=N)N)cc2)n1CO.Cl.Cl.Cl.Cl.O.O` [PtPz1, [Pt2(N-hydroxymethyl-3,5-dimethylpyrazole)4(berenil)2]·4HCl·2H2O], the “percent of cells with active caspase-9” value in assay [1] was 52.8%. Besides, the “increase in caspase-8 activity compared with the control” value was approximately 12 fold in assay [2] and “about 10 fold” in assay [6]. In addition, the “percent of cells with active caspase-8” value in assay [2] is given as 56.2%; in assay [6], 48.9%. Besides, the IC50 in assay [3] (MDA-MB-231, 24 h incubation) stood at 16 ± 1 µM; in assay [3] (MDA-MB-231, 48 h incubation), 10 ± 1 µM; in assay [7] (MCF-7, 24 h incubation), 17 ± 2 µM; in assay [7] (MCF-7, 48 h incubation), 11 ± 1 µM. Moreover, in assay [4], the “increase in caspase-3 activity compared with untreated cells” value is given as “nine-fold increase”. For the same compound, in assay [4], the “percent of cells with active caspase-3” value is given as 30.6%. The “percent of TUNEL positive cells” value is on record as 58.3% in assay [5] and 55.7% in assay [8].

With `Cc1cc(C)[n+]([Pt-2]2([n+]3[nH]c(C)cc3C)[N](c3ccc(C(=N)N)cc3)N=[N+](c3ccc(C(=N)N)cc3)[Pt-2]([n+]3[nH]c(C)cc3C)([n+]3[nH]c(C)cc3C)[N](c3ccc(C(=N)N)cc3)N=[N+]2c2ccc(C(=N)N)cc2)[nH]1.Cl.Cl.Cl.Cl.O.O` [PtPz2, [Pt2(3,5-dimethylpyrazole)4(berenil)2]·4HCl·2H2O], the “percent of cells with active caspase-9” value in assay [1] stood at 50.5%. Besides, the “increase in caspase-8 activity compared with the control” value in assay [2] is on record as approximately 12 fold; in assay [6] it was “about 10 fold”. For the same compound, the results for the “percent of cells with active caspase-8” value in assay [2] and in assay [6] were 56.2% and 45.8%, respectively. The IC50 in assay [3] (MDA-MB-231, 24 h incubation) amounted to 17 ± 2 µM; in assay [3] (MDA-MB-231, 48 h incubation) it was 11 ± 1 µM; in assay [7] (MCF-7, 24 h incubation), 20 ± 2 µM; in assay [7] (MCF-7, 48 h incubation) it was 13 ± 2 µM. In addition, the “increase in caspase-3 activity compared with untreated cells” value in assay [4] was “nine-fold increase”. Besides, the “percent of cells with active caspase-3” value in assay [4] was 28.9%. Moreover, the “percent of TUNEL positive cells” value amounted to 55.8% in assay [5] and 47.5% in assay [8].

As for `Cc1c[nH][n+]([Pt-2]2([n+]3[nH]cc(C)c3C)[N](c3ccc(C(=N)N)cc3)N=[N+](c3ccc(C(=N)N)cc3)[Pt-2]([n+]3[nH]cc(C)c3C)([n+]3[nH]cc(C)c3C)[N](c3ccc(C(=N)N)cc3)N=[N+]2c2ccc(C(=N)N)cc2)c1C.Cl.Cl.Cl.Cl.O.O` [PtPz3, [Pt2(3,4-dimethylpyrazole)4(berenil)2]·4HCl·2H2O], the “percent of cells with active caspase-9” value in assay [1] is listed as 43.4%. The “percent of cells with active caspase-8” value in assay [2] is on record as 48.3%; in assay [6], 38.0%. Further, the half-inhibitory concentration (IC50) in assay [3] (MDA-MB-231, 24 h incubation) was 20 ± 2 µM; in assay [3] (MDA-MB-231, 48 h incubation), 16 ± 1 µM; in assay [7] (MCF-7, 24 h incubation) it was 23 ± 1 µM; in assay [7] (MCF-7, 48 h incubation), 18 ± 1 µM. For the same compound, the “percent of cells with active caspase-3” value in assay [4] is given as 22.9%. The “percent of TUNEL positive cells” value in assay [5] stood at 50.4%; in assay [8], 46.5%.

With `Cc1ccn[nH]1.Cc1ccn[nH]1.Cc1ccn[nH]1.Cc1ccn[nH]1.Cl.Cl.Cl.Cl.N=C(N)c1ccc(N=N[N]([Pt])c2ccc(C(=N)N)cc2)cc1.N=C(N)c1ccc(N=N[N]([Pt])c2ccc(C(=N)N)cc2)cc1.O.O` [PtPz5, [Pt2(5-methylpyrazole)4(berenil)2]·4HCl·2H2O], the “percent of cells with active caspase-9” value in assay [1] came to 39.6%. In addition, the “percent of cells with active caspase-8” value in assay [2] turned out to be 46.1%; in assay [6] it was 37.9%. For the same compound, the IC50 in assay [3] (MDA-MB-231, 24 h incubation) was found to be 29 ± 1 µM; in assay [3] (MDA-MB-231, 48 h incubation), 19 ± 2 µM; in assay [7] (MCF-7, 24 h incubation), 28 ± 2 µM; in assay [7] (MCF-7, 48 h incubation), 22 ± 2 µM. Besides, the “percent of cells with active caspase-3” value in assay [4] worked out at 21.0%. Moreover, the figures for the “percent of TUNEL positive cells” value in assay [5] and in assay [8] were 31.6% and 32.1%, respectively.

For `CCn1ccc[n+]1[Pt-2]1([n+]2cccn2CC)[N](c2ccc(C(=N)N)cc2)N=[N+](c2ccc(C(=N)N)cc2)[Pt-2]([n+]2cccn2CC)([n+]2cccn2CC)[N](c2ccc(C(=N)N)cc2)N=[N+]1c1ccc(C(=N)N)cc1.Cl.Cl.Cl.Cl.O.O` [PtPz6, [Pt2(N-ethylpyrazole)4(berenil)2]·4HCl·2H2O], the “percent of cells with active caspase-9” value in assay [1] amounted to 24.1%. For the same compound, the “percent of cells with active caspase-8” value turned out to be 21.0% in assay [2] and 21.1% in assay [6]. Also, the IC50 is more than 50 µM in assay [3] (MDA-MB-231, 24 h incubation); 39 ± 2 µM in assay [3] (MDA-MB-231, 48 h incubation); more than 50 µM in assay [7] (MCF-7, 24 h incubation); 48 ± 2 µM in assay [7] (MCF-7, 48 h incubation). Further, the “percent of cells with active caspase-3” value in assay [4] came to 11.0%. Moreover, the entries for the “percent of TUNEL positive cells” value in assay [5] and in assay [8] were 13.2% and 14.2%, respectively.
